In ChEMBL document CHEMBL1134849, “Substituted acrylamides as factor Xa inhibitors: improving bioavailability by P1 modification” (Bioorg Med Chem Lett, 2002):

Experiments:
[1] = target: T1, Coagulation factor X (Homo sapiens, UniProt P00742); assay: Concentration required for inhibition of Coagulation factor X
[2] = Oral bioavailability in rat; type: ADME, organism-based; conditions: in vivo
[3] = Oral bioavailability in dog; type: ADME, organism-based, Canis lupus familiaris; conditions: in vivo
[4] = Half life in dogs in hours; type: ADME, organism-based, Canis lupus familiaris; conditions: dog, in vivo
[5] = Plasma clearance in dogs; type: ADME, organism-based, Canis lupus familiaris; conditions: dog
[6] = Plasma clearance in rats; type: ADME, organism-based; conditions: rat
[7] = Volume distribution in dogs; type: ADME, organism-based, Canis lupus familiaris; conditions: dog, in vivo; read-out: Vz
[8] = Volume distribution in rats; type: ADME, organism-based; conditions: rat, in vivo; read-out: Vz
[9] = Half life in rats in hours; type: ADME, organism-based; conditions: rat, in vivo
[10] = target: T1, Coagulation factor X; assay: Binding affinity towards Coagulation factor X
[11] = species: Oryctolagus cuniculus; assay: Antithrombotic activity was evaluated by using rabbit PT assay; type: functional
[12] = target: Prothrombin (Homo sapiens, UniProt P00734); assay: Concentration required for inhibition of Coagulation factor II
[13] = target: Serine protease 1 (Homo sapiens, UniProt P07477); assay: Concentration required for inhibition of trypsin
[14] = Oral bioavailability in ratrs; type: ADME, organism-based; conditions: rat, in vivo

Sequence of Serine protease 1 (P07477 whole entry): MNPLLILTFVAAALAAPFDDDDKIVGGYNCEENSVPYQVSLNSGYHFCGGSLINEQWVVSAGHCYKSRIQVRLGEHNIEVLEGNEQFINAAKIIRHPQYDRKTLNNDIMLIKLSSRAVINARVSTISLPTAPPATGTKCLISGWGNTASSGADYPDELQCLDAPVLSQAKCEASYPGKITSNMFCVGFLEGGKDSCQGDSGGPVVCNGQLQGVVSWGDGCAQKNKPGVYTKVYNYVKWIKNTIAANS
T1 sequence (P00742 41-179 limits assumed): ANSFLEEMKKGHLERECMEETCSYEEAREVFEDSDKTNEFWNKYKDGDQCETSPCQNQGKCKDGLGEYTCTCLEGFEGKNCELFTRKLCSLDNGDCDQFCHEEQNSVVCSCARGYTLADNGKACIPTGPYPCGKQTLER
T1 sequence (P00742 235-488 limits assumed): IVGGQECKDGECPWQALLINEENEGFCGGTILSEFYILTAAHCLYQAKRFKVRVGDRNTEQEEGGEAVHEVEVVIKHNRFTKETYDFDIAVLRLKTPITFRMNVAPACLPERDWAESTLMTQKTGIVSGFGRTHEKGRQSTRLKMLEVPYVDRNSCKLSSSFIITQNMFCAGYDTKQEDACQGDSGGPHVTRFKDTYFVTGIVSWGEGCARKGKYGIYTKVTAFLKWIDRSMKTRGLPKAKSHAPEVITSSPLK

COc1ccc(/C(C)=C(/F)C(=O)Nc2ccc(-c3ccccc3S(N)(=O)=O)cc2)c(C#N)c1
IC50 [1]: 5700 nM

C/C(=C(\F)C(=O)Nc1ccc(-c2ccccc2C#N)cc1)c1ccc2ccnc(N)c2c1
IC50 [1]: 190 nM

C/C(=C(/F)C(=O)Nc1ccc(-c2ccccc2S(N)(=O)=O)cc1)c1ccc2ccnc(N)c2c1
IC50 [1]: 880 nM

C/C(=C(\F)C(=O)Nc1ccc(-c2ccccc2S(N)(=O)=O)cc1)c1cc(Cl)ccc1C#N
IC50 [1]: 9500 nM

C/C(=C(\F)C(=O)Nc1ccc(-c2ccccc2S(N)(=O)=O)cc1Br)c1cc(Br)ccc1[N+](=O)[O-]
IC50 [1]: 2900 nM

C/C(=C(\F)C(=O)Nc1ccc(-c2ccncc2[S+](C)[O-])cc1F)c1ccc2ccnc(N)c2c1 (configuration not stated)
IC50 [1]: 1500 nM

C/C(=C(/F)C(=O)Nc1ccc(-c2ccccc2S(N)(=O)=O)cc1)c1ccc2ncnc(N)c2c1
IC50 [1]: 270 nM

C/C(=C(\F)C(=O)Nc1ccc(-c2ccccc2S(N)(=O)=O)cc1)c1ccc2ccnc(N)c2c1
bioavailability [2]: 6.8% | bioavailability [3]: 36.7% | half-life [4]: 7.1 h | clearance [5]: 11.4 mL/min/kg | clearance [6]: 48.7 mL/min/kg | Vd [7]: 6.8 L/kg | IC50 [1]: 14 nM | Vd [8]: 10 L/kg | half-life [9]: 2.38 h

C/C(=C(\F)C(=O)Nc1ccc(-c2ccccc2S(N)(=O)=O)cc1Br)c1ccc2ccnc(N)c2c1
bioavailability [2]: 30.1% | Ki [10]: 1.3 nM | Activity [11]: 10.3 µM | bioavailability [3]: 33.1% | half-life [4]: 6 h | IC50 [12]: 4800 nM | clearance [5]: 10.8 mL/min/kg | clearance [6]: 4.4 mL/min/kg | Vd [7]: 5.5 L/kg | IC50 [1]: 7 nM | Vd [8]: 0.61 L/kg | half-life [9]: 1.6 h | IC50 [13]: 2400 nM

C/C(=C(\F)C(=O)Nc1ccc(-c2ccccc2S(N)(=O)=O)cc1Cl)c1ccc2ccnc(N)c2c1
bioavailability [14]: 35.1% | Ki [10]: 1.1 nM | Activity [11]: 9.4 µM | IC50 [12]: 5400 nM | clearance [6]: 6.7 mL/min/kg | IC50 [1]: 11 nM | Vd [8]: 0.8 L/kg | half-life [9]: 1.43 h | IC50 [13]: > 11000 nM

C/C(Cc1ccc(Br)cc1)=C(\F)C(=O)Nc1ccc(-c2ccccc2S(N)(=O)=O)cc1
IC50 [1]: 1800 nM

C/C(=C(\F)C(=O)Nc1ccc(-c2ccccc2S(N)(=O)=O)cc1)c1cccc(N)c1
IC50 [1]: > 11000 nM

C/C(=C(\F)C(=O)Nc1ccc(-c2ccncc2S(C)(=O)=O)cc1)c1ccc2ccnc(N)c2c1
IC50 [1]: 7 nM

C/C(=C(/F)C(=O)Nc1ccc(-c2ccccc2S(N)(=O)=O)cc1)c1ccc2nc(N)nc(N)c2c1
IC50 [1]: > 11000 nM

C/C(=C(\F)C(=O)Nc1ccc(-c2ccccc2S(N)(=O)=O)cc1F)c1cccc(C(=N)S)c1
IC50 [1]: 140 nM

C/C(=C(\F)C(=O)Nc1ccc(-c2ccccc2S(N)(=O)=O)cc1F)c1ccc2ccnc(N)c2c1
bioavailability [2]: 13.5% | Ki [10]: 1.6 nM | Activity [11]: 6.3 µM | IC50 [12]: 6300 nM | clearance [6]: 25.3 mL/min/kg | IC50 [1]: 5 nM | Vd [8]: 3.7 L/kg | half-life [9]: 1.7 h | IC50 [13]: 9700 nM

Nc1nccc2ccc(/C=C\C(=O)Nc3ccc(-c4ccccc4S(N)(=O)=O)cc3)cc12
bioavailability [2]: 1.5% | clearance [6]: 56.4 mL/min/kg | IC50 [1]: 78 nM | Vd [8]: 7.4 L/kg | half-life [9]: 1.51 h

C/C(=C(\F)C(=O)Nc1ccc(-c2ccccc2S(N)(=O)=O)cc1)c1cccc(C(N)=O)c1
IC50 [1]: 920 nM

C/C(=C(\F)C(=O)Nc1ccc(-c2ccccc2S(N)(=O)=O)cc1)c1cc(N)ccc1[N+](=O)[O-]
IC50 [1]: 250 nM

C/C(=C(\F)C(=O)Nc1ccc(-c2ccccc2S(N)(=O)=O)cc1)c1cccc(NN)c1
IC50 [1]: > 11000 nM

C/C(=C(\F)C(=O)Nc1ccc(-c2ccccc2S(N)(=O)=O)cc1Br)c1cc(Br)ccc1N
IC50 [1]: > 11000 nM

C/C(=C(\F)C(=O)Nc1ccc(-c2ccccc2S(N)(=O)=O)cn1)c1ccc2ccnc(N)c2c1
bioavailability [2]: 13% | clearance [6]: 19.1 mL/min/kg | IC50 [1]: 14 nM | Vd [8]: 2.7 L/kg | half-life [9]: 1.64 h

C/C(=C(\F)C(=O)Nc1ccc(-c2ccnc(C(N)=O)c2)cc1)c1ccc2ccnc(N)c2c1
IC50 [1]: 180 nM
